Values of other authors as cited in PMC12166256 (Clinical Pharmacology and Therapeutics, 2025).

Tested on: P-glycoprotein (P-gp)
Settings: in vitro studies; cited from earlier work

In the case of `CN1C(=O)c2cccc(OC(F)F)c2[C@H]2C[C@@H]1c1nc3ccc(-c4cnc(C5(N)CCC5)nc4)cc3n12` [Balinatunfib], the “active transport by P-glycoprotein (P-gp)” value is listed as “substrate”.
